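Following 48 hours of exposure in 96-well plates, responses at five concentrations were used to interpolate endpoints linearly. TGI is the concentration that stops growth completely.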
Assays:
Assay in all cases: NCI tumour cell line growth inhibition, 48 h
ACHN renal = test system: ACHN renal
SF-295 CNS = test system: SF-295 CNS
CCRF-CEM leukemia = test system: CCRF-CEM leukemia
UO-31 renal = test system: UO-31 renal
A549 NSCLC = test system: A549 NSCLC
TK-10 renal = test system: TK-10 renal
RPMI-8226 leukemia = test system: RPMI-8226 leukemia
MALME-3M melanoma = test system: MALME-3M melanoma
NCI-H23 lung = test system: NCI-H23 lung
K-562 leukemia = test system: K-562 leukemia
HT29 colon = test system: HT29 colon
OVCAR-4 ovarian = test system: OVCAR-4 ovarian
COLO 205 colon = test system: COLO 205 colon
HCT-116 colon = test system: HCT-116 colon
RXF 393 renal = test system: RXF 393 renal
PC-3 prostate = test system: PC-3 prostate
IGROV1 ovarian = test system: IGROV1 ovarian
HS 578T breast = test system: HS 578T breast

Cc1c(N2CCN(C)CC2)nc2ccc(Cl)cc2c1-c1ccccc1
TGI (ACHN renal): 57.7 µM
TGI (SF-295 CNS): 31.2 µM
TGI (CCRF-CEM leukemia): 42.2 µM
TGI (UO-31 renal): 36.1 µM
TGI (A549 NSCLC): 36.9 µM
TGI (TK-10 renal): > 10 µM
TGI (RPMI-8226 leukemia): 44.9 µM
TGI (MALME-3M melanoma): 35.7 µM
TGI (NCI-H23 lung): 55.4 µM
TGI (K-562 leukemia): 35.7 µM
TGI (HT29 colon): 27.7 µM
TGI (OVCAR-4 ovarian): 36.9 µM
TGI (COLO 205 colon): 29.7 µM
TGI (HCT-116 colon): 40 µM
TGI (RXF 393 renal): 42.3 µM

CCOc1ccc(N/C(=C(/C(Cl)=C(/Cl)N2CCCCC2)[N+](=O)[O-])n2nnc3ccccc32)cc1
TGI (ACHN renal): 36 µM
TGI (SF-295 CNS): 49 µM
TGI (UO-31 renal): 4.17 µM
TGI (PC-3 prostate): 26.1 µM
TGI (A549 NSCLC): 62.9 µM
TGI (TK-10 renal): > 100 µM
TGI (RPMI-8226 leukemia): > 100 µM
TGI (MALME-3M melanoma): 39.6 µM
TGI (NCI-H23 lung): 29.7 µM
TGI (K-562 leukemia): > 100 µM
TGI (COLO 205 colon): 42.5 µM
TGI (HCT-116 colon): 37.7 µM

CN(C)CCn1c(=O)c2ccc(NCCN3CCNCC3)c3c(=O)c4ccccc4n(c1=O)c23
TGI (ACHN renal): 15.7 µM
TGI (SF-295 CNS): 18 µM
TGI (CCRF-CEM leukemia): 4.4 µM
TGI (IGROV1 ovarian): 12.1 µM
TGI (HS 578T breast): 25.9 µM
TGI (UO-31 renal): 17.9 µM
TGI (PC-3 prostate): 16.2 µM
TGI (A549 NSCLC): 15.9 µM
TGI (TK-10 renal): 27.5 µM
TGI (RPMI-8226 leukemia): 2.93 µM
TGI (MALME-3M melanoma): 17 µM
TGI (NCI-H23 lung): 16.8 µM
TGI (K-562 leukemia): 6.85 µM
TGI (HT29 colon): 18.8 µM
TGI (OVCAR-4 ovarian): 32.3 µM
TGI (COLO 205 colon): 13 µM
TGI (HCT-116 colon): 12.8 µM

O=[N+]([O-])C(=C(N1CCOCC1)N1CCOCC1)/C(Cl)=C(\Cl)Br
TGI (ACHN renal): 54 µM
TGI (SF-295 CNS): > 100 µM
TGI (CCRF-CEM leukemia): 9.49 µM
TGI (HS 578T breast): > 100 µM
TGI (UO-31 renal): 43.4 µM
TGI (PC-3 prostate): > 100 µM
TGI (A549 NSCLC): > 100 µM
TGI (RPMI-8226 leukemia): 33.5 µM
TGI (MALME-3M melanoma): 30.5 µM
TGI (NCI-H23 lung): 34.1 µM
TGI (K-562 leukemia): 60.2 µM
TGI (HT29 colon): 44.9 µM
TGI (OVCAR-4 ovarian): 39.5 µM
TGI (COLO 205 colon): 29.6 µM
TGI (HCT-116 colon): 30.8 µM

O=C1CSC(c2ccccc2[N+](=O)[O-])N1c1ccc(-c2ccc(-n3c(-c4ccccc4)nc4ccccc4c3=O)cc2)cc1 (stereo not drawn)
TGI (ACHN renal): > 100 µM
TGI (SF-295 CNS): > 100 µM
TGI (CCRF-CEM leukemia): > 100 µM
TGI (IGROV1 ovarian): > 100 µM
TGI (HS 578T breast): > 100 µM
TGI (UO-31 renal): > 100 µM
TGI (PC-3 prostate): > 100 µM
TGI (A549 NSCLC): > 100 µM
TGI (TK-10 renal): > 100 µM
TGI (RPMI-8226 leukemia): > 100 µM
TGI (MALME-3M melanoma): > 100 µM
TGI (K-562 leukemia): > 100 µM
TGI (HT29 colon): > 100 µM
TGI (OVCAR-4 ovarian): > 100 µM
TGI (COLO 205 colon): > 100 µM
TGI (HCT-116 colon): > 100 µM

CC1=C(c2ccccc2)NC(=S)C(C)C(c2ccccc2)=N1 (stereo not drawn)
TGI (ACHN renal): > 100 µM
TGI (SF-295 CNS): > 100 µM
TGI (CCRF-CEM leukemia): 47.1 µM
TGI (IGROV1 ovarian): > 100 µM
TGI (UO-31 renal): > 100 µM
TGI (A549 NSCLC): > 100 µM
TGI (TK-10 renal): > 100 µM
TGI (RPMI-8226 leukemia): 57.5 µM
TGI (MALME-3M melanoma): > 100 µM
TGI (NCI-H23 lung): 70.4 µM
TGI (K-562 leukemia): 28.6 µM
TGI (HT29 colon): > 100 µM
TGI (OVCAR-4 ovarian): > 100 µM
TGI (COLO 205 colon): > 100 µM
TGI (HCT-116 colon): > 100 µM
TGI (RXF 393 renal): 61.6 µM

C=C(CCC/C(C)=C/C=C/[C@@H](C)CCCc1ccoc1)C[C@@H]1OC(=O)[C@H](C)[C@@H]1O
TGI (ACHN renal): 16.2 µM
TGI (SF-295 CNS): 19.1 µM
TGI (CCRF-CEM leukemia): 24.6 µM
TGI (IGROV1 ovarian): 21.7 µM
TGI (UO-31 renal): 15.9 µM
TGI (PC-3 prostate): 15.6 µM
TGI (A549 NSCLC): 17 µM
TGI (TK-10 renal): 25.8 µM
TGI (RPMI-8226 leukemia): 43.4 µM
TGI (MALME-3M melanoma): 18.1 µM
TGI (NCI-H23 lung): 16.6 µM
TGI (K-562 leukemia): > 50 µM
TGI (HT29 colon): > 50 µM
TGI (OVCAR-4 ovarian): 20.1 µM
TGI (COLO 205 colon): 20.5 µM
TGI (HCT-116 colon): > 50 µM
TGI (RXF 393 renal): 19.3 µM

— PubChem BioAssay (NCI)
